Measured values reported in US20260337156A1, “SOLUBILIZING COMPOUNDS” (Vivesto AB, priority 2022, published 2026).

Test: particle size and polydispersity index of drug micelles over time (ZetaSizer)
Format: physicochemical
Conditions: for change of particle size and polydispersity index over time: 0-24 h
Protocol: Micellar size was measured using a ZetaSizer from Malvern Panalytical.
(§1) A stock solution of docetaxel in methanol was mixed with a stock solution of compound 1 in a round bottom flask. The mixture was evaporated to dryness in a rotary evaporator. Final drying was performed in a desiccator to remove residual solvent. Hydration of the dried film was performed by adding water for injection (1.0 mL) to a concentration of 1 mg/mL of docetaxel. The resulting solution was filtered through a 0.22 μm sterile filter and further diluted with 0.9% sodium chloride solution to 0.5 mg/mL of docetaxel. […]
(§2) A stock solution of cyclosporin in methanol was mixed with a stock solution of compound 1 in a round bottom flask. The mixture was evaporated to dryness in a rotary evaporator. Final drying was performed in a desiccator to remove residual solvent. Hydration of the dried film was performed by adding water for injection (1.0 mL) to a concentration of 1 mg/mL of cyclosporin. The resulting solution was filtered through a 0.22 μm sterile filter and further diluted with 0.9% sodium chloride solution to 0.5 mg/mL of cyclosporin. The final weight ratio of cyclosporin to micelle forming agent was 1:3.
(§3) A stock solution of docetaxel in methanol was mixed with a stock solution of compound 3 in a round bottom flask. The mixture was evaporated to dryness in a rotary evaporator. Final drying was performed in a desiccator to remove residual solvent. Hydration of the dried film was performed by adding water for injection (1.0 mL) to a concentration of 1 mg/mL of docetaxel. The resulting solution was filtered through a 0.22 μm sterile filter and further diluted with 0.9% sodium chloride solution to 0.5 mg/mL of Docetaxel. The final weight ratio of docetaxel to micelle forming agent was 1:3.
as §2, with “compound 3” for “compound 1”
as §1, with “compound 4” for “compound 1”
as §3, with “compound 5” for “compound 3”, “of docetaxel.” for “of Docetaxel.”
A stock solution of cabazitaxel in methanol was mixed with a stock solution of compound 5 in a round bottom flask. The mixture was evaporated to dryness in a rotary evaporator. Final drying was performed in a desiccator to remove residual solvent. Hydration of the dried film was performed by adding water for injection (1.0 mL) to a concentration of 1 mg/mL of cabazitaxel. […]

[1] = docetaxel:compound 1:3, docetaxel 0.5 mg/mL
[2] = docetaxel:compound 1:3, docetaxel 0.5 mg/mL, time 0 h
[3] = docetaxel:compound 1:3, docetaxel 0.5 mg/mL, time 1 h
[4] = docetaxel:compound 1:3, docetaxel 0.5 mg/mL, time 2 h
[5] = docetaxel:compound 1:3, docetaxel 0.5 mg/mL, time 4 h
[6] = docetaxel:compound 1:3, docetaxel 0.5 mg/mL, time 6 h
[7] = docetaxel:compound 1:3, docetaxel 0.5 mg/mL, time 24 h
[8] = cabazitaxel:compound 1:3, cabazitaxel 0.5 mg/mL, time 0 h
[9] = cabazitaxel:compound 1:3, cabazitaxel 0.5 mg/mL, time 1 h
[10] = cabazitaxel:compound 1:3, cabazitaxel 0.5 mg/mL, time 2 h
[11] = cabazitaxel:compound 1:3, cabazitaxel 0.5 mg/mL, time 4 h
[12] = cabazitaxel:compound 1:3, cabazitaxel 0.5 mg/mL, time 6 h
[13] = cabazitaxel:compound 1:3, cabazitaxel 0.5 mg/mL, time 24 h

Structure (SMILES)	Particle size [2] [nm]	Polydispersity index [2]	Particle size [3] [nm]	Polydispersity index [3]	Particle size [4] [nm]	Polydispersity index [4]	Particle size [5] [nm]	Polydispersity index [5]	Particle size [6] [nm]	Polydispersity index [6]	Particle size [7] [nm]	Polydispersity index [7]	change of particle size and polydispersity index over time [1]	further results
COc1cc(C)c(/C=C/C(C)=C/C=C/C(C)=C/C(=O)N(C)[C@H]2CC[C@H](CS(=O)(=O)[O-])CC2)c(C)c1C.[Na+] [Compound 7]	100.8	0.23	97.60	0.24	97.60	0.24	96.90	0.25	99.12	0.25	96.76	0.26	Small variations in the particle size and the polydispersity index over time were noted	
COc1cc(C)c(/C=C/C(C)=C/C=C/C(C)=C/C(=O)N(CCS(=O)(=O)[O-])CC(N)=O)c(C)c1C.[Na+] [Compound 5]	59.40	0.17	66.24	0.16	75.40	0.14	82.19	0.13	87.95	0.13	105.7	0.14	An increase in the particle size and very small variations of the polydispersity index over time were noted	change of particle size and polydispersity index over time (cabazitaxel:compound 1:3, cabazitaxel 0.5 mg/mL): Small variations in the particle size and the polydispersity index over time were noted; Particle size [8]: 93.83 nm; Polydispersity index [8]: 0.19; Particle size [9]: 98.08 nm; Polydispersity index [9]: 0.20; Particle size [10]: 102.2 nm; Polydispersity index [10]: 0.21; Particle size [11]: 106.6 nm; Polydispersity index [11]: 0.20; Particle size [12]: 108.8 nm; Polydispersity index [12]: 0.21; Particle size [13]: 83.42 nm; Polydispersity index [13]: 0.39

Further lines, with some results ahead:

Particle size [2] [nm]	Polydispersity index [2]	Particle size [3] [nm]	Polydispersity index [3]	Particle size [4] [nm]	Polydispersity index [4]	Particle size [5] [nm]	Polydispersity index [5]	Particle size [6] [nm]	Polydispersity index [6]	Particle size [7] [nm]	Polydispersity index [7]	Structure (SMILES)	change of particle size and polydispersity index over time [1]	further results
89.91	0.20	97.93	0.20	103.8	0.20	113.0	0.17	118.6	0.17	122.0	0.22	COc1cc(C)c(/C=C/C(C)=C/C=C/C(C)=C/C(=O)N2CCN(C(=O)c3ccc(S(=O)(=O)[O-])cc3)CC2)c(C)c1C.[K+] [Compound 9]	Increase in the particle size and small variations the polydispersity index over time were noted	
61.37	0.22	61.27	0.28	64.21	0.28	67.34	0.28	69.84	0.28	66.18	0.38	COc1cc(C)c(/C=C/C(C)=C/C=C/C(C)=C/C(=O)N2CCN(c3ccc(S(=O)(=O)[O-])cc3)CC2)c(C)c1C.[Na+] [Compound 6]	Small variations in the particle size and the polydispersity index over time were noted	
55.38	0.20	70.34	0.15	75.90	0.13	83.10	0.11	87.94	0.12	105.0	0.16	COc1cc(C)c(/C=C/C(C)=C/C=C/C(C)=C/C(=O)N2CCC(CCS(=O)(=O)[O-])CC2)c(C)c1C.[Na+] [Compound 8]	Increase in the particle size and small variations the polydispersity index over time were noted	
